# How the values were obtained:
# [1] = storage and handling of DAP amino acid 6-TFA; assay type: physicochemical
# Description: Storage: The dry sample of DAP amino acid 6-TFA was stored in air-tight dark glass vials in a cold, dry and dark environment and was stable for over 3 years without decomposition.
# It is noteworthy that the vial containing 6-TFA taken out from the fridge or freezer was always allowed to warm to r.t. prior to opening and handling.
# [2] = system: E. coli; assay: LC-MS based amino acid uptake assay (intracellular concentration of DAP derivatives); settings: addition of 1 mM 6 to cell media
# [3] = system: TEDAP (Vlm TE, serine 2463 replaced by DAP); assay: depsipeptidyl-TE complex formation with TEDAP (LC-ESI-MS); assay type: biochemical, Streptomyces tsusimaensis; settings: incubation with TEDAP
# [4] = free amino acid (lysine sidechain; beta amino group of DAP); cited from earlier work
# [5] = system: PCC1RS/tRNACUA and PCC2RS/tRNACUA pairs; assay: amber codon suppression in reporter genes with photocaged-cysteine synthetase pairs; assay type: cell-based; settings: cells provided with 3 or 4 and the relevant pair
# Description: Compounds 3 and 4 contain a conservative SH to NH2 substitution relative to photocaged cysteine derivatives that we have previously incorporated into proteins using the PCC1RS/tRNACUA and PCC2RS/tRNACUA pairs, respectively^32. (These pairs were derived from the pyrrolysyl-tRNA synthetase/tRNACUA pair).
# [6] = system: TEDAP; assay: LC-ESI-MS analysis of Vlm TE reaction products, TEDAP; assay type: biochemical, Streptomyces tsusimaensis; settings: incubation with TEDAP
# Experimental: (§1) Extracted ion chromatograms (EICs) from HR-LC-ESI-MS of reactions of tetradepsipeptidyl-SNAC 7 (1.7 mM) and Vlm TE (6.5 μM). a, TEwt produces valinomycin as its major product. […] See Supplementary Table 2 for accurate mass analysis and deviations from calculated m/z values of each compound.
# (§2) Purified TEwt or TEDAP at 0.2 mg mL-1 (6.5 μM) was incubated with tetradepsipeptidyl-SNAC 7 (1.7 mM), or a mix of tetradepsipeptidyl-SNAC 7 and deoxytetradepsipeptidyl-SNAC 8 (1.7 mM each) in buffer T. Samples were incubated at room temperature for 24 hours, and then quenched with one volume of 0.1% formic acid in acetonitrile. Next, samples were centrifuged at 20,000 g, flash frozen in liquid nitrogen and stored at −80° C. before HPLC analysis. For HPLC-MS analysis, frozen samples were thawed at room temperature, vortexed and clarified by centrifugation at 20,000 g before injection. HR-LC-ESI-MS was performed at the Mass Spectroscopy Facility (Department of Chemistry, McGill University) with an Agilent XDB-C8 (5 μm, 4.6×150 mm) column in a Dionex Ultimate 3000 UHPLC system coupled to a Bruker maXis impact QTOF mass spectrometer in positive ESI mode. […] Data was analyzed using the Bruker DataAnalysis software and the SmartFormula tool (Bruker).
# [7] = system: Vlm TEwt; assay: LC-ESI-MS analysis of Vlm TE reaction products, TEwt; assay type: biochemical, Streptomyces tsusimaensis; settings: incubation with Vlm TEwt
# Experimental: as §1, §2
# [8] = system: HA-tagged Ub; assay: ubiquitination test with UBE2L3 variants; assay type: biochemical; settings: for E2-Ub complex formation: 0.2 μM E1, HA-tagged Ub, E2 loading buffer; for redox sensitivity of complex with Ub: presence of ß-mercaptoethanol
# Experimental: Ubiquitination test with UBE2L3(C86DAP). […] Ub-UBE2L3: Thioester-linked (UBE2L3[wt]) or isopeptidelinked (UBE2L3[C86DAP]) E2-Ub complex.
# In order to test whether UBE2L3(C86DAP5), which had been irradiated with UV light and incubated overnight at 37° C., could be charged with Ub, a reaction containing 0.2 μM E1 and HA-tagged Ub in E2 loading buffer was set up. Each reaction (positive control [wt], negative control [C86A] and [C86DAP]) was performed with and without Ub (see FIG. 23).
# [9] = system: Ub-tev-His6; assay: reactions of TEV with Ubtev (SDS-PAGE, western blot); assay type: biochemical; settings: SDS-PAGE and western blot
# Description: The use of TEV(wt) results in cleavage of the TEV cleavage sequence. The use of TEV(C151A) results in minimal cleavage. The presence of DAP in the active site of TEV results in the presence of a new band in the coomassie gel, representing the isopeptide-linked TEV(C151DAP)-Ub complex (left). αUb and αStrep western blots of the reactions confirm the identity of the complex (TEV constructs contain a Strep tag). b, Tandem mass spectrometry of isopeptide-linked TEV(C151DAP)-Ub complex. Tandem mass spectrometry unambiguously identifies the DAP modification at the desired site and the expected tev-Gly-Gly modification on the residue, consistent with Ub trapping on DAP.
# Tryptic MS/MS of the slower mobility band identifies the isopeptide linkage between DAP and Ub, confirming formation of the TEVDAP-Ub (FIG. 4b). Therefore, the substitution of the catalytic cysteine in TEV with DAP enables the creation of a protease that goes through the first step of the protease cycle: nucleophilic attack on the substrate carbonyl to form the first tetrahedral intermediate. This intermediate collapses, releasing the C-terminal fragment of the substrate and leaving the N-terminal fragment of the substrate covalently attached to the protease, through a stable amide bond that is not subject to hydrolysis. […]
molecule,measurement,setting,value
CC(SCCOC(=O)NC[C@H](N)C(=O)O)c1cc2c(cc1[N+](=O)[O-])OCO2 (mixture of isomers) [Compound 6],stable without decomposition on storage,"[1]; dry sample, air-tight dark glass vials, cold, dry and dark environment",over 3 years
same,light and moisture sensitivity on handling,[1]; exposure to moist air,light sensitive and slightly hygroscopic
same,intracellular concentration,[2],approximately 2 mM
"CC(=O)NCCSC(=O)[C@@H](NC(=O)[C@@H](C)OC(=O)[C@@H](NC(=O)CC(C)C)C(C)C)C(C)C (single isomer, unassigned) [deoxy-tetradepsipeptidyl-SNAC 8]",acyl-TEDAP conjugate formation yield,[3],~70%
"NC[C@H](N)C(=O)O (stereo in doubt) [Compound 1, 2,3-diaminopropionic acid]",pKa of the conjugate acid of the sidechain amine,[4],9.4
N[C@@H](CNCc1ccccc1[N+](=O)[O-])C(=O)O [Compound 3],suppression of amber codons in reporter genes,[5],did not function to suppress amber codons
CC(NC[C@H](N)C(=O)O)c1cc2c(cc1[N+](=O)[O-])OCO2 (some centres unmarked) [Compound 4],suppression of amber codons in reporter genes,[5],did not function to suppress amber codons
"CC(=O)NCCSC(=O)C(NC(=O)C(C)OC(=O)C(NC(=O)C(O)C(C)C)C(C)C)C(C)C [tetradepsipeptidyl-SNAC 7, HO-D-Hiv-D-Val-L-Lac-L-Val-SNAC]",valinomycin synthesis,[6],did not observe valinomycin synthesis
same,valinomycin production,[7],led to production of valinomycin
same,acyl-TEDAP conjugate formation yield,[3],> 60%
"CC(C)[C@@H]1NC(=O)[C@H](C)OC(=O)[C@@H](C(C)C)NC(=O)[C@@H](C(C)C)OC(=O)[C@H](C(C)C)NC(=O)[C@H](C)OC(=O)[C@@H](C(C)C)NC(=O)[C@@H](C(C)C)OC(=O)[C@H](C(C)C)NC(=O)[C@H](C)OC(=O)[C@@H](C(C)C)NC(=O)[C@@H](C(C)C)OC1=O [valinomycin, reference compound]",acyl-TEDAP conjugate formation yield,[3],65-100%
UBE2L3(C86DAP): UBE2L3 with DAP at position 86,E2-Ub complex formation,[8],higher molecular weight band could also be detected
same,redox sensitivity of complex with Ub,[8],redox insensitive
"UBE2L3(wt): wild type UBE2L3, positive control",E2-Ub complex formation,[8],higher molecular weight band could be observed
same,redox sensitivity of complex with Ub,[8],redox sensitive
TEVDAP: TEV protease with amino acid 1 (DAP) at position 151 (protein) GESLFKGPRDYNPISSTICHLTNESDGHTTSLYGIGFGPFIITNKHLFRRNNGTLLVQSLHGVFKVKNTTTLQQHLIDGRDMIIIRMPKDFPPFPQKLKFREPQREERICLVTTNFQTKSMSSMVSDTSCTFPSSDGIFWKHWIQTKDGQCGSPLVSTRDGFIVGIHSASNFTNTNNYFTSVPKNFMELLTNQEAQQWVSGWRLNADSVLWGGHKVFMSKPEEPFQPVKEATQLMN,outcome of incubation with Ub-tev-His6,[9],formation of a new band
wild-type TEV: wild-type tobacco etch virus protease (protein) GESLFKGPRDYNPISSTICHLTNESDGHTTSLYGIGFGPFIITNKHLFRRNNGTLLVQSLHGVFKVKNTTTLQQHLIDGRDMIIIRMPKDFPPFPQKLKFREPQREERICLVTTNFQTKSMSSMVSDTSCTFPSSDGIFWKHWIQTKDGQCGSPLVSTRDGFIVGIHSASNFTNTNNYFTSVPKNFMELLTNQEAQQWVSGWRLNADSVLWGGHKVFMSKPEEPFQPVKEATQLMN,outcome of incubation with Ub-tev-His6,[9],cleaves Ub-tev-His6

# Reference: patent publication US12286657B2, “Methods and compositions” (United Kingdom Research and Innovation, priority 2018, dated 2025)
